Patent US4546079A, “Streptomyces species and process for producing antibiotic” (Bayer Aktiengesellschaft, priority 1981, dated 1985)
*1 amine or outer side, *2 acyl side, *3 side chain or, on linkers, in order; H or OH if unused. Where a SMILES comes first, the peptide text is derived from it. [ ]: non-standard residue; d: D form. ξ: configuration not given here. X1 = Cn1c(=NC(N)=O)ccn(C2SC(C(O)C(N[*:1])C(=O)[*:2])C(O)C2O)c1=O; ξOrn(N(OH)Ac) = CC(=O)N(O)CCCC(N)C(=O)O; ξS = NC(CO)C(=O)O

Assays:
[1] = pH 7
E. coli Newmann = test: ED100 (complete cure) in the white mouse; format: in vivo; settings: Escherichia coli, sc, 0.5 h, once, 30 minutes after infection, subcutaneously
Procedure: An ED100 (complete cure) is found in vivo for the white mouse, at 3 mg of antibiotic/kg of body weight, in the case of infection with E. coli […]; therapy: application once, 30 minutes after infection, subcutaneously.

E. coli 14 = test: agar dilution test (NCCLS), in vitro activity; format: cell-based
E. coli 205 Kn = test: animal test (mice), ED100; format: in vivo; settings: Escherichia coli, sc, i.p. infection, s.c. treatment, all animals survive, read-out: ED100 after intra-peritoneal infection and subcutaneous treatment
Procedure: (§1) | ED100 after intra-peritoneal | infection and subcutaneous The animals were infected with a quantity of bacteria, which quantity led to the death of the control animals during the course of 24 hours. The ED100 was the dose which allowed all infected and treated animals to survive.

Klebsiella pneumoniae 63 = test: animal test (mice), ED100; format: in vivo; settings: sc, i.p. infection, s.c. treatment, all animals survive, read-out: ED100 after intra-peritoneal infection and subcutaneous treatment
Procedure: as §1

E. coli Neumann = test: animal test (mice), ED100; format: in vivo; settings: Escherichia coli, sc, i.p. infection, s.c. treatment, all animals survive, read-out: ED100 after intra-peritoneal infection and subcutaneous treatment
Procedure: as §1

Staphylococcus aureus = test: animal test (mice), ED100; format: in vivo; settings: sc, i.p. infection, s.c. treatment, all animals survive, read-out: ED100 after intra-peritoneal infection and subcutaneous treatment
Procedure: as §1

E. coli C 165 = test: agar dilution test (NCCLS), in vitro activity; format: cell-based
physchem = settings: organic solvent or mixture

What does the source list for CC(=O)N(O)CCCC(N)C(=O)NC(CCCN(O)C(C)=O)C(=O)NC(CCCN(O)C(C)=O)C(=O)NC(CO)C(=O)NC(C(=O)O)C(O)C1SC(n2ccc(=NC(N)=O)n(C)c2=O)C(O)C1O (stereo not drawn) [BAY i 3265 component B] (H-[ξOrn(N(OH)Ac)][ξOrn(N(OH)Ac)][ξOrn(N(OH)Ac)][ξS][X1]-OH)?
solubility in water [1]: unlimited solubility; ED100 (E. coli Newmann): 3 mg/kg; in vitro activity (E. coli 14): in vitro activity is found; ED100 (E. coli 205 Kn): 0.1 mg/kg; ED100 (Klebsiella pneumoniae 63): 0.2 mg/kg; ED100 (E. coli Neumann): 0.5 mg/kg; ED100 (Staphylococcus aureus): 0.6 mg/kg; in vitro activity (E. coli C 165): in vitro activity is found; solubility (physchem; chloroform): < 100 µg/mL; solubility (physchem; dimethylformamide): < 10000 µg/mL; solubility (physchem; dimethylsulphoxide): < 10000 µg/mL; solubility (physchem; ether): < 100 µg/mL; solubility (physchem; ethyl acetate): < 100 µg/mL; solubility (physchem; methanol): < 10000 µg/mL; solubility (physchem; petroleum ether): < 100 µg/mL
